Data as given in patent US20200197516A1, “Antagonists of Products of the HS.459642 Unigene Cluster for the Inhibition of Proliferation, Development or Differentiation of Stem Cells Including Cancer Stem Cells” (Cavion, Inc., priority 2011, published 2020).

System: glioma stem cells (GSC)
Test: alamarBlue assay: sensitizing glioma stem cells to Temozolomide
Type: cell-based
Conditions: mibefradil 30 nM for 24 hrs, washed, then Temozolomide 5 μM for 24 hrs, FIG. 4
Method: FIG. 4. Effect of mibefradil (Mi) on sensitizing glioma stem cells (GSC) to Temozolomide (TMZ). The GSCs were seeded in 24 well plates as 50,000 cells/well overnight. They were grown in serum-free neurobasal media (Invitrogen), supplemented with human recombinant EGF and bFGF (R&D Systems) at 37° C. in 5% CO2, […]. Cells were treated with the T type calcium channel blocker mibefradil (30 nM) for 24 hrs, washed and then treated with Temozolomide (5 μM) for 24 hrs The reagent alamarBlue® (Invitrogen) was added to each well to arrive at a final concentration of 10% alamarBlue® in each well and fluorescence intensity was determined according to the manufacturers instructions. Plates were incubated for 1-2 hrs and 100 μl of supernatant was transferred to a 96 well plate for alamarBlue® reading.
FIG. 5. […]
In order to determine the effect of inhibition of a product of the Hs.459642 Unigene Cluster on cancer stem cells, the effect of two inhibitors of T-type calcium channels was studied to determine if CACNA1H inhibition sensitizes cancer cells to further anti-cancer treatment. […] Subsequent to the combination treatment, with the anti-cancer agent administered sequentially to the CACNA1H inhibitor, fluorescence intensity indicative of cell proliferation was analyzed, with greater intensity indicating increased cellular proliferation. […]

In the case of `COCC(=O)O[C@]1(CCN(C)CCCc2nc3ccccc3[nH]2)CCc2cc(F)ccc2[C@@H]1C(C)C` [Mi, mibefradil], the “fluorescence intensity (alamarBlue, indicative of cell proliferation)” value is reported as “dramatically reduced”.
